{"source": "paper PMC5065625", "about": "“Structure-mechanism-based engineering of chemical regulators targeting distinct pathological factors in Alzheimer's disease” (Nature Communications, 2016)", "key": {"5 × FAD AD mouse model": {"test_system": "5 × FAD AD mouse model", "assay": "Cerebral amyloid pathology (ELISA, 4G8 immunohistochemistry, Congo red)", "format": "in vivo", "conditions": "1 mg kg^−1 daily i.p., 30 days", "excerpt": "The amyloidogenic characteristics of 5 × FAD mice have been described previously. In brief, 5 × FAD mice express the Swedish/London/Florida mutations of the human amyloid precursor protein (hAPP) and the M146L/L286V mutations of the human presenilin-1 (PSEN1). They develop the early and robust pathology of AD with the cognitive and behavioural impairments. The 5 × FAD mice have been widely used to test the possible efficacy of a compound targeted for AD[25][29]. We maintained the mice on a C57BL/6 × SJL hybrid background. All animal experiments were performed in accordance with the guidelines of the Asan Institute for Life Science for Laboratory Animal Care and Use (Seoul, Korea), where the animals had free access to water and food, and were housed on 12 h light/12 h dark cycle.\nChemicals used were freshly prepared shortly before administration to the animals. […]\nWe measured the levels of various types of Aβ in the brain as described previously. The protein fractions were serially prepared from the left hemispheres in PBS (pH 7.4), in 2% SDS and in 70% FA, and then subjected to the human Aβ40 and Aβ42 ELISA quantification according to the manufacturer's methods (Invitrogen, Carlsbad, CA, USA). The aggregated (Invitorgen) and oligomeric Aβ (82E1-specific; IBL International, Hamburg, Germany) ELISA quantifications were also performed using PBS fractions. The cerebral levels of Aβ40 and Aβ42 were represented as moles per gram of wet brain tissue, whereas the aggregated or oligomeric Aβ amounts were expressed as grams per gram of wet brain tissue.\n12-μm sagittal sections of the brain were prepared from the right hemispheres on a cryostat (HM550; Microm, Walldorf, Germany), and mounted onto 1% poly-L-lysine-coated glass slides. […] The loads of amyloid deposits in the brain were expressed as the per cent area of 4G8-immunoreactive deposits or the number of congophilic plaques per mm^2 of a cortical region of interest."}, "metal-free Aβ40/Aβ42": {"biological_target": "metal-free Aβ40/Aβ42 (Homo sapiens, UniProt P05067)", "sequence (P05067 672-711 limits assumed)": "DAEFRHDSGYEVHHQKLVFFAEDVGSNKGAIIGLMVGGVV", "assay": "Aβ aggregation inhibition/disaggregation experiments (gel/western blot, TEM), metal-free", "format": "biochemical", "conditions": "Aβ 25 μM, compound 50 μM, 37 °C, 24 h; gel/western blot and TEM", "description": "The ability of 1–4 to control the aggregation of both metal-free Aβ and metal-Aβ in inhibition (Fig. 2) and disaggregation experiments (Supplementary Fig. 1) was evaluated using the two major Aβ isoforms (Aβ40/Aβ42)[1][2][3][6][16] found in the AD-affected brain. Molecular weight (MW) distributions and morphologies of the resulting Aβ species were determined by gel electrophoresis followed by western blotting (gel/western blot) and transmission electron microscopy (TEM). Generally, under the experimental conditions employed herein, compound-free Aβ samples with and without metal ions assemble into a distribution of large aggregates that are too big to penetrate into the gel matrix, which yields very little smearing in the gel/western blots, but they can be visualized by TEM. […]\nBefore experiments, Aβ40 or Aβ42 was dissolved in ammonium hydroxide (NH4OH; 1% v/v, aq). […] The concentration of the solution was determined by measuring the absorbance of the solution at 280 nm (ɛ=1,450 M^–1 cm^–1 for Aβ40; ɛ=1,490 M^–1 cm^–1 for Aβ42). […]\nThe Aβ samples from in vivo or in vitro experiments were analysed by gel electrophoresis followed by western blotting using an anti-Aβ antibody (6E10)[24][25][27][28][29]. […]"}}}
{"molecule": "Nc1ccc(NCc2ccccn2)cc1", "note": "[compound 1, N^1-(pyridin-2-ylmethyl)benzene-1,4-diamine]", "values": [{"measurement": "Loads of Aβ deposits in the brain", "setting": "5 × FAD AD mouse model; 4G8-immunoreactive or congophilic plaques", "result": "reduced the loads of Aβ deposits"}, {"measurement": "Amounts of Aβ oligomers and aggregates", "setting": "5 × FAD AD mouse model; ELISA, PBS fractions", "result": "decreased"}, {"measurement": "Total Aβ level in the brain versus vehicle", "setting": "5 × FAD AD mouse model; PBS-, SDS- and FA-soluble Aβ40/Aβ42, ELISA", "result": "significantly lower"}]}
{"molecule": "CN(C)c1ccc(NCc2ccc[nH]2)cc1", "note": "[compound 4, N^1-((1H-pyrrol-2-yl)methyl)-N^4,N^4-dimethylbenzene-1,4-diamine]", "values": [{"measurement": "Modulation of metal-free Aβ aggregation", "setting": "metal-free Aβ40/Aβ42", "result": "pronounced influence on metal-free Aβ aggregation"}]}
